Earlier results as cited in patent US11261449B2, “Anti-cancer RNA aptamers” (CITY OF HOPE, priority 2015, dated 2022).

Assays:
[1] = tested on: HepG2 cells; conditions: HepG2, Reebye et al.; cited from earlier work
[2] = tested on: tumor burden; conditions: intravenous injection; cited from earlier work

Substance: C/EBPα-saRNA: saRNA targeting CCAAT/enhancer-binding protein-α; sense and antisense strands AW1, SEQ ID NO:22/23 (sense CGGUCAUUGUCACUGGUCAUU; antisense UGACCAGUGACAAUGACCGUU; listed as RNA, chemistry not fully specified)
- cell proliferation [1]: decreases cell proliferation in HepG2 cells
- tumor burden [2]: decreased tumor burden
